Data published in patent US20240124409A1, “GUAIANOLIDE SESQUITERPENE LACTONE DERIVATIVES AND PHARMACEUTICAL USE THEREOF” (NANJING UNIVERSITY OF CHINESE MEDICINE, priority 2021, published 2024).

Key:
mouse sepsis model = experiment: Mouse sepsis model (LPS), Q-PCR of inflammatory factors; assay type: in vivo, C57BL/6 mice; parameters: key: relative mRNA by 2^−ΔΔCt, normalized to Gapdh
Excerpt: The mice were randomly divided into 8 groups, one of which was randomly selected as the normal group, and the other 7 groups were the model group, the parent drug 1 (0.4 and 4 μmol/kg), the hydrochloride 22 (4 μmol/kg), the fumarate 23 (0.4 and 4 μmol/kg) and dexamethasone (Dex, 12 μmol/kg) groups, respectively, with 6 mice in each group. 5 days before model establishment, the parent drug 1 (0.4 and 4 μmol/kg), the hydrochloride 22 (4 μmol/kg), the fumarate 23 (0.4 and 4 μmol/kg) and Dex (12 μmol/kg) were administered intragastrically. The mice in the normal group and model group were administered intragastrically the same volume of the solvent 0.5% CMC-Na. LPS (10 mg/kg) was injected intraperitoneally 1 hour after administration on the last day to establish a mouse sepsis model.
At 6 h after intraperitoneal injection of LPS, the mice were sacrificed by cervical dislocation, and the abdominal cavity was opened. The lungs, livers and kidneys were taken out, and rinsed twice with pre-cooled PBS. The lung tissues, liver left lobe tissues and kidney tissues of the mice were cut, and fixed with 4% paraformaldehyde for 24-48 h. The remaining tissues were frozen at −70° Cfor subsequent use.
20 mg of kidney, lung and liver tissues were accurately weighed, rinsed with pre-cooled PBS solution, cut into small pieces by ophthalmic surgical scissors, and put into a glass homogenizer, into which was added 1 mL Trizol reagent for grinding to prepare tissue homogenate. Subsequently, the homogenate was transferred into a 1.5 mL EP tube without RNase and lysed on ice for 10 min. 200 μL chloroform was added, and the mixture was shaken violently, stood on ice for 3-5 min, and centrifuged at 12000 rpm and 4° C. for 15 min. The supernatant was aspirated carefully into a new 1.5 mL EP tube without RNase, into which was added the same volume of pre-cooled isopropanol, stood on an ice bath for 30 min, centrifuged at 12000 rpm and 4° C. for 10 min, and the supernatant was discarded. 75% ethanol-DEPC solution was added to wash the precipitate, and the total RNA was obtained by inversion and air drying on flat paper. Subsequently, 10 μL of DEPC treated water was added for dissolution. 1 μL of the total RNA solution was taken, and diluted to 100 times, the OD values of which at 260 nm and 280 nm were measured with a full wavelength microplate reader. If the ratio of OD260/OD280 is between 1.8 and 2.0, it is said that the extracted RNA has a high purity, i.e., it can be used in subsequent experiments.
Subsequent experiments were carried out with 20 μL of a reverse transcription reaction system according to the method described in the kit instructions:
Subsequent experiments were carried out with 20 μL of a reaction system according to the method described in the kit instructions:
The above reagents were added into a micro-reaction tube, sealed with a sealing membrane, and placed in a Q-PCR instrument. The parameters were set according to the following reaction conditions to carry out the amplification experiment. The reaction conditions were as follows:
The threshold cycle (Ct) value of each group was recorded. Calculating and analyzing were carried out by the 2^−ΔΔCt method (the expression level of the control gene Gapdh was set to 1 to correct the expression level of the target gene).

[1] = test system: mouse acute kidney injury models; experiment: Mouse acute kidney injury model (folic acid); assay type: in vivo, C57BL/6 mice; parameters: Havcr1 mRNA expression / Ngal mRNA expression / Tnf mRNA expression / Il1 mRNA expression / Il6 mRNA expression / α-Sma mRNA expression / Col1a1 mRNA expression / Tgfb1 mRNA expression: scale not given here; BUN (urea level in serum): unit not given here; details: for Scr (creatinine level in serum): in µmol/L (unit assumed); for Col1a1 mRNA expression / Havcr1 mRNA expression / Il1 mRNA expression / Il6 mRNA expression / Ngal mRNA expression / Tgfb1 mRNA expression / Tnf mRNA expression / α-Sma mRNA expression: kidney
Procedure: Acute kidney injury: The mice were randomly divided into 7 groups, one of which was randomly selected as the normal group, and the other 6 groups were the model group, the parent drug 1 (0.4 and 4 μmol/kg), the hydrochloride 22 (4 μmol/kg), and the fumarate 23 (0.4 and 4 μmol/kg) groups, respectively, with 6 mice in each group. In addition to the mice in the normal group, other mice were injected intraperitoneally with folic acid dissolved in 0.9% NaHCO3 solution (250 mg/kg) to establish mouse acute kidney injury models. 1 h before model establishment, the parent drug 1 (0.4 and 4 μmol/kg), the hydrochloride 22 (4 μmol/kg) and the fumarate 23 (0.4 and 4 μmol/kg) were administered intragastrically for 3 consecutive days. The mice in the normal group and model group were administered intragastrically the same volume of the solvent 0.5% CMC-Na.
1 h after the last administration, blood was collected from the venous plexus of fundus oculi, stood at room temperature for 2 h, and centrifuged at 3000 rpm for 20 min. The serum was aspirated, aliquoted, and frozen at −70° C. for subsequent use. After blood collection, the mice were sacrificed by cervical dislocation, and the abdominal cavity was opened. The kidneys were taken out, rinsed twice with pre-cooled PBS after the perirenal fats and capsules were peeled off, and then fixed with 4% paraformaldehyde for 24-48 h, embedded in paraffin and stained with HE. The remaining tissues were frozen at −70° C. for subsequent use.
μL serum was taken from each sample for the detection of creatinine and urea levels. Samples were added in accordance with the instructions of the kit strictly. After incubation at 37° C., the absorbance value was measured in a microplate reader, and the content levels of detection indicators in each group were calculated according to the standard curve.
The extraction of total RNA from animal tissues, cDNA synthesis and PCR amplification are as in above examples.

[2] = Table 12, title 'in lung' (text b281: liver), 0.4 μmol/kg i.g.
[3] = Table 12, title 'in lung' (text b281: liver), 4 μmol/kg i.g.

Compound | Il1 mRNA expression (mouse sepsis model; [2]) | Il1 mRNA expression (mouse sepsis model; [3]) | Il6 mRNA expression (mouse sepsis model; [3]) | Tnf mRNA expression (mouse sepsis model; [3]) | Il1 mRNA expression (mouse sepsis model; kidney, 4 μmol/kg i.g.) | Il6 mRNA expression (mouse sepsis model; kidney, 4 μmol/kg i.g.) | Tnf mRNA expression (mouse sepsis model; kidney, 4 μmol/kg i.g.) | Il1 mRNA expression (mouse sepsis model; lung, 4 μmol/kg i.g.) | Il6 mRNA expression (mouse sepsis model; lung, 4 μmol/kg i.g.) | Tnf mRNA expression (mouse sepsis model; lung, 4 μmol/kg i.g.) | BUN (urea level in serum) ([1]; 4 μmol/kg i.g.) | Scr (creatinine level in serum) ([1]; 4 μmol/kg i.g.) | Col1a1 mRNA expression ([1]; 4 μmol/kg) | Havcr1 mRNA expression ([1]; 4 μmol/kg) | Il1 mRNA expression ([1]; 4 μmol/kg) | Il6 mRNA expression ([1]; 4 μmol/kg) | Ngal mRNA expression ([1]; 4 μmol/kg) | Tgfb1 mRNA expression ([1]; 4 μmol/kg) | Tnf mRNA expression ([1]; 4 μmol/kg) | α-Sma mRNA expression ([1]; 4 μmol/kg) | other results
C=C1C(=O)O[C@@H]2[C@@H]3[C@]4(CC[C@@]3(C)O)C[C@]4(C)CC[C@@H]12 [Compound 1] | 11.24 ± 2.98 | 4.82 ± 0.58 | 5.20 ± 0.87 | 7.09 ± 0.99 | 3.05 ± 0.58 | 3.11 ± 0.29 | 6.59 ± 0.18 | 7.89 ± 1.44 | 11.67 ± 1.84 | 7.99 ± 1.36 | 21.33 | 71.95 | 1.32 | 99.99 | 1.72 | 3.98 | 20.17 | 1.36 | 2.76 | 1.42 | Il6 mRNA expression (mouse sepsis model; [2]): 8.86 ± 3.11; Tnf mRNA expression (mouse sepsis model; [2]): 8.75 ± 2.25; Il1 mRNA expression (mouse sepsis model; kidney, 0.4 μmol/kg i.g.): 7.01 ± 0.33; Il6 mRNA expression (mouse sepsis model; kidney, 0.4 μmol/kg i.g.): 7.55 ± 2.08; Tnf mRNA expression (mouse sepsis model; kidney, 0.4 μmol/kg i.g.): 7.17 ± 1.22; Il1 mRNA expression (mouse sepsis model; lung, 0.4 μmol/kg i.g.): 15.29 ± 0.88; Il6 mRNA expression (mouse sepsis model; lung, 0.4 μmol/kg i.g.): 19.17 ± 0.51; Tnf mRNA expression (mouse sepsis model; lung, 0.4 μmol/kg i.g.): 8.58 ± 0.85; BUN (urea level in serum) ([1]; 0.4 μmol/kg i.g.): 31.46; Scr (creatinine level in serum) ([1]; 0.4 μmol/kg i.g.): 108.48; Col1a1 mRNA expression ([1]; 0.4 μmol/kg): 1.64; Havcr1 mRNA expression ([1]; 0.4 μmol/kg): 175.10; Il1 mRNA expression ([1]; 0.4 μmol/kg): 2.62; Il6 mRNA expression ([1]; 0.4 μmol/kg): 8.02; Ngal mRNA expression ([1]; 0.4 μmol/kg): 30.52; Tgfb1 mRNA expression ([1]; 0.4 μmol/kg): 1.96; Tnf mRNA expression ([1]; 0.4 μmol/kg): 2.89; α-Sma mRNA expression ([1]; 0.4 μmol/kg): 1.82
CN(C)C[C@@H]1C(=O)O[C@H]2[C@H]1CC[C@@]1(C)C[C@]13CC[C@@](C)(O)[C@H]23 [Compound 22] | – | 3.07 ± 0.29 | 3.93 ± 0.90 | 5.71 ± 0.61 | 2.76 ± 0.59 | 2.43 ± 0.64 | 6.20 ± 0.60 | 5.22 ± 0.90 | 7.16 ± 0.71 | 6.52 ± 0.29 | 16.74 | 64.94 | 1.18 | 62.86 | 1.06 | 1.55 | 13.05 | 0.98 | 2.31 | 1.11 | –
CN(C)C[C@@H]1C(=O)O[C@H]2[C@H]1CC[C@@]1(C)C[C@]13CC[C@@](C)(O)[C@H]23 [Compound 23] | 10.46 ± 1.55 | 4.36 ± 0.94 | 4.97 ± 0.77 | 7.10 ± 1.09 | 2.82 ± 0.33 | 2.70 ± 0.52 | 6.04 ± 1.62 | 6.79 ± 0.72 | 9.10 ± 1.20 | 8.67 ± 1.51 | 18.95 | 50.39 | 1.20 | 83.11 | 1.45 | 5.61 | 13.08 | 1.09 | 2.42 | 0.90 | Il6 mRNA expression (mouse sepsis model; [2]): 9.13 ± 0.80; Tnf mRNA expression (mouse sepsis model; [2]): 7.63 ± 1.97; Il1 mRNA expression (mouse sepsis model; kidney, 0.4 μmol/kg i.g.): 6.56 ± 0.88; Il6 mRNA expression (mouse sepsis model; kidney, 0.4 μmol/kg i.g.): 6.05 ± 0.19; Tnf mRNA expression (mouse sepsis model; kidney, 0.4 μmol/kg i.g.): 6.70 ± 0.80; Il1 mRNA expression (mouse sepsis model; lung, 0.4 μmol/kg i.g.): 13.30 ± 0.88; Il6 mRNA expression (mouse sepsis model; lung, 0.4 μmol/kg i.g.): 18.40 ± 3.16; Tnf mRNA expression (mouse sepsis model; lung, 0.4 μmol/kg i.g.): 8.79 ± 1.18; BUN (urea level in serum) ([1]; 0.4 μmol/kg i.g.): 30.08; Scr (creatinine level in serum) ([1]; 0.4 μmol/kg i.g.): 90.69; Col1a1 mRNA expression ([1]; 0.4 μmol/kg): 1.58; Havcr1 mRNA expression ([1]; 0.4 μmol/kg): 170.08; Il1 mRNA expression ([1]; 0.4 μmol/kg): 2.07; Il6 mRNA expression ([1]; 0.4 μmol/kg): 6.47; Ngal mRNA expression ([1]; 0.4 μmol/kg): 25.75; Tgfb1 mRNA expression ([1]; 0.4 μmol/kg): 1.64; Tnf mRNA expression ([1]; 0.4 μmol/kg): 2.60; α-Sma mRNA expression ([1]; 0.4 μmol/kg): 1.80
